The values below are quoted from earlier work in US7930948B2, “Device for leaching extraction and assessment” (priority 2007, dated 2011).

For data set [1] the following is noted: octanol/water partition coefficient; after Mackay et al. 1992.
The conditions of data set [2]: after Mackay et al. 1992.

With `C1=Cc2cccc3cccc1c23` [Acenaphthylene], the “log(Kow)” value in data set [1] was 4.07.

Consider `c1ccc2cc3ccccc3cc2c1` [Anthracene], for which, in data set [2], the “Aqueous Solubility” value is 0.073 µg/mL. In addition, the “log(Kow)” value in data set [1] is 4.54.

Take `c1ccc2cc3c(ccc4ccccc43)cc2c1` [Benzo(a)anthracene]: the “log(Kow)” value in data set [1] is 5.91.

In the case of `c1ccc2c(c1)cc1ccc3cccc4ccc2c1c34` [Benzo(a)pyren], the “log(Kow)” value in data set [1] is 6.50.

With `c1ccc2c(c1)-c1cccc3c1c-2cc1ccccc13` [Benzo(b)fluoranthene], the “log(Kow)” value in data set [1] was 6.50.

On to `c1cc2ccc3ccc4ccc5cccc6c(c1)c2c3c4c56` [Benzo(g,h,i)perylene], for which the “Aqueous Solubility” value in data set [2] was 0.00026 µg/mL. In addition, the “log(Kow)” value in data set [1] was 6.85.

Regarding `c1ccc2cc3c(cc2c1)-c1cccc2cccc-3c12` [Benzo(k)fluoranthene], the “Aqueous Solubility” value in data set [2] was 0.00081 µg/mL. The “log(Kow)” value in data set [1] was 6.84.

For the compound `c1ccc2c(c1)ccc1cc3c(ccc4ccccc43)cc12` [Dibenzo(a,h)anthracene], the “Aqueous Solubility” value in data set [2] was 0.0005 µg/mL. Further, the “log(Kow)” value in data set [1] is recorded as 7.19.

Consider `c1ccc2c(c1)-c1cccc3cccc-2c13` [Fluoranthene], for which the “log(Kow)” value in data set [1] is 5.22.

With `c1ccc2c(c1)Cc1ccccc1-2` [Fluorene], the “log(Kow)” value in data set [1] is on record as 4.18.

For `c1ccc2c(c1)-c1ccc3ccc4cccc5cc-2c1c3c45` [Indeno(1,2,3-cd)pyrene], the “log(Kow)” value in data set [1] is listed as 7.66.

`c1ccc2ccccc2c1` [Naphthalene]: the “Aqueous Solubility” value in data set [2] is 34.4 µg/mL.

As to `c1ccc2c(c1)ccc1ccccc12` [Phenanthrene], the “Aqueous Solubility” value in data set [2] was 1.29 µg/mL.

With Acenaphthene, in data set [1], the “log(Kow)” value is on record as 4.03.

What is called Aqueous Solubility is the concentration that dissolves in the medium under given conditions.
